Data reported in patent US7807663B2, “Therapeutic agents for diabetes” (Ajinomoto Co., Inc., priority 2003, dated 2010).
≈ marks a conversion by molar mass, not a printed value.

How the values were obtained:
adipose cells of rats = assay: Evaluation of the sugar transportation activity (2-[14C(U)]-deoxy-D-glucose incorporation); assay type: cell-based, Wistar rats; details: concentration with reinforcing effect of 50% of that of insulin (100 nM) = 100%; rat adipose cells, 30 min pre-culture at 37° C., 5 min uptake
Method in brief: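 Collagenase-isolated epididymal adipocytes from male Wistar rats in 2% BSA/KRH (pH 7.6) preincubated with compound 30 min at 37 °C, then pulsed with 2-[14C(U)]-deoxy-D-glucose (0.5 μCi/sample) 5 min; uptake stopped with 10 μM cytochalasin B, cells separated through dinonyl phthalate and counted by scintillation. EC50 (μg/mL) = concentration giving 50% of the 100 nM insulin effect.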

GK rats = assay: Combinational effect with insulin secretagogue (gliclazide) using GK rats (Example 2); assay type: in vivo; details: combined with gliclazide, compared with alone groups, same experiment as Example 1
Method: (§1) The compound (II) (100 mg/kg) was orally administered to C57BL/6NCrj mice (11 week age, male) and soon after that, gliclazide (3 mg/kg) was orally administered. After administration, the blood was taken from their caudal veins over time to determine the blood glucose level. Area under the curve of blood glucose level changes until 70 minutes after the administration was set as an index and variations from a control group (Vehicle administered group) were compared.
The same experiment is conducted as that of Example 1 except that the compounds of the Compound Nos. 6, 8, 62, 80, 81, 88, 91, […], 105, 106, 129, 130, 131 and 132 in Tables 1 and 2 are used instead of the compound (II), and GK rats are used instead of normal mice.

KK-Ay mice = assay: Combinational effect with biguanide (metformin) using KK-Ay mice (Example 4); assay type: in vivo; details: combined with metformin, compared with alone groups, same experiment as Example 3
Method: (§2) The compound (III) (30 mg/kg) was orally administered to C57BL/KsJ-db/bdJcl mice (10 week age, male) and soon after that, metformin (100 mg/kg) was orally administered. 60 minutes after administration, the blood was taken from their caudal veins to determine the blood glucose level.
The same experiment is conducted as that of Example 3 except that the compounds of the Compound Nos. 6, 8, 62, 80, 81, 88, 91, 96, 105, 106, 129, 130, 131 and 132 in Tables 1 and 2 are used instead of the compound (III), and KK-Ay mice are used instead of db/bd mice.

C57BL/KsJ-db/bdJcl mice [1] = assay: Combinational effect with glitazone (pioglitazone) using db/db mice, oral glucose load (Examples 5 and 6); assay type: in vivo; details: single oral administration combined with pioglitazone 10 mg/kg/day oral for 10 days, compared with alone groups
Method: The oral glucose load experiments are conducted using C57BL/KsJ-db/bdJcl mice in the conditions with or without the oral administeration of pioglitazone (10 mg/kg/day) for 10 days and with or without a single oral administration of the compound (III).
The same experiment is conducted as that of Example 5 except that the compounds of the Compound Nos. 6, 8, 62, 80, 81, 88, 91, 96, 105, 106, 129, 130, 131 and 132 in Tables 1 and 2 are used instead of the compound (III).

C57BL/KsJ-db/bdJcl mice [2] = assay: Combinational effect with insulin using db/db mice (Examples 7 and 8); assay type: in vivo; details: combined with insulin 0.2 U/kg, compared with alone groups, same experiment as Example 3
Method: The compound (III) (30 mg/kg) was orally administered to C57BL/KsJ-db/bdJcl mice (10 week age, male) and soon after that, metformin (100 mg/kg) was orally administered. 60 minutes after administration, the blood was taken from their caudal veins to determine the blood glucose level. The same experiment is conducted as that of Example 3 except that insulin (0.2 U/kg) is used instead of metformin. […] The same experiment is conducted as that of Example 7 except that the compounds of the Compound Nos. 6, 8, 62, 80, 81, 88, 91, 96, 105, 106, 129, 130, 131 and 132 in Tables 1 and 2 are used instead of the compound (III).

C57BL/KsJ-db/bdJcl mice [3] = assay: Combinational effect with biguanide (metformin) using db/db mice (Example 3); assay type: in vivo; details: compound 30 mg/kg oral combined with metformin 100 mg/kg oral, compared with alone groups
Method: FIG. 2 is a chart showing a combinational effect of the compound (III) and metformin in Example 3 (average value+standard deviation, each group N=6).
The compound (III) of the Compound No. 98 in above Table 1, which is indicated by the following structural formula, was used for the investigation. The compound is that described as Example 131 in WO02/44180 and synthesized in accordance with the method described in the international publication.
as §2

C57BL/6NCrj mice = assay: Combinational effect with insulin secretagogue (gliclazide) using normal mice (Example 1); assay type: in vivo; details: compound 100 mg/kg oral combined with gliclazide 3 mg/kg oral, compared with alone groups
Method: FIG. 1 is a chart showing a combinational effect of the compound (II) and gliclazide in Example 1 (average value±standard deviation, each group N=4).
The compound (II) of the Compound No. 96 in above Table 1, which is indicated by the following structural formula, was used for the investigation. The compound is that described as Example 129 in WO02/44180 and synthesized in accordance with the method described in the international publication.
as §1

**Q.** `O=C1NCC2=C1[C@@H](c1ccccc1OC1CC1)N(C(=O)CO)[C@@H]1CCCC[C@H]1N2` [Compound 62] was tested. Which “A: sugar transportation activity (EC50)” value (adipose cells of rats) did it give?
**A.** 0.5 µg/mL

**Q.** And the “hypoglycemic action (blood glucose level)” value (GK rats)?
**A.** remarkable hypoglycemic action

**Q.** What about the “hypoglycemic action (blood glucose level)” value (KK-Ay mice) of the same compound?
**A.** remarkable hypoglycemic action

**Q.** What about the “hypoglycemic action (oral glucose load)” value (C57BL/KsJ-db/bdJcl mice [1]) of the same compound?
**A.** remarkable hypoglycemic action

**Q.** What about the “hypoglycemic action (blood glucose level)” value (C57BL/KsJ-db/bdJcl mice [2]) of the same compound?
**A.** remarkable hypoglycemic action

**Q.** How did the “A: sugar transportation activity (EC50)” value (adipose cells of rats) turn out when `O=C1NCC2=C1[C@@H](c1ccccc1)N(C(=O)CO)[C@@H]1CCCC[C@H]1N2` [Compound 131] was run?
**A.** 1.5 µg/mL

**Q.** What about the “hypoglycemic action (blood glucose level)” value (GK rats) of the same compound?
**A.** remarkable hypoglycemic action

**Q.** What about the “hypoglycemic action (blood glucose level)” value (KK-Ay mice) of the same compound?
**A.** remarkable hypoglycemic action

**Q.** And the “hypoglycemic action (oral glucose load)” value (C57BL/KsJ-db/bdJcl mice [1])?
**A.** remarkable hypoglycemic action

**Q.** What about the “hypoglycemic action (blood glucose level)” value (C57BL/KsJ-db/bdJcl mice [2]) of the same compound?
**A.** remarkable hypoglycemic action

**Q.** `CSc1ccccc1[C@@H]1C2=C(CNC2=O)N[C@@H]2CCCC[C@H]2N1C(C)=O` [Compound 80] was tested. Which “A: sugar transportation activity (EC50)” value (adipose cells of rats) did it give?
**A.** 5 µg/mL

**Q.** What about the “hypoglycemic action (blood glucose level)” value (GK rats) of the same compound?
**A.** remarkable hypoglycemic action

**Q.** What about the “hypoglycemic action (blood glucose level)” value (KK-Ay mice) of the same compound?
**A.** remarkable hypoglycemic action

**Q.** And the “hypoglycemic action (oral glucose load)” value (C57BL/KsJ-db/bdJcl mice [1])?
**A.** remarkable hypoglycemic action

**Q.** What about the “hypoglycemic action (blood glucose level)” value (C57BL/KsJ-db/bdJcl mice [2]) of the same compound?
**A.** remarkable hypoglycemic action

**Q.** Which results are given for `CCC(=O)N1[C@@H]2CCCC[C@H]2NC2=C(C(=O)NC2)[C@H]1c1cccc(F)c1C` [Compound 106]?
**A.** A: sugar transportation activity (EC50) (adipose cells of rats): 0.6 µg/mL; hypoglycemic action (blood glucose level) (GK rats): remarkable hypoglycemic action; hypoglycemic action (blood glucose level) (KK-Ay mice): remarkable hypoglycemic action; hypoglycemic action (oral glucose load) (C57BL/KsJ-db/bdJcl mice [1]): remarkable hypoglycemic action; hypoglycemic action (blood glucose level) (C57BL/KsJ-db/bdJcl mice [2]): remarkable hypoglycemic action

**Q.** What does the source list for `CCc1ccccc1[C@@H]1C2=C(CNC2=O)N[C@@H]2CCCC[C@H]2N1C(C)=O` [Compound 98]?
**A.** EC50 (adipose cells of rats): 4 µg/mL (≈ 11.3 µM); hypoglycemic action (blood glucose level) (GK rats): remarkable hypoglycemic action; hypoglycemic action (blood glucose level 60 minutes after administration) (C57BL/KsJ-db/bdJcl mice [3]): remarkable hypoglycemic action; hypoglycemic action (oral glucose load) (C57BL/KsJ-db/bdJcl mice [1]): remarkable hypoglycemic action; hypoglycemic action (blood glucose level) (C57BL/KsJ-db/bdJcl mice [2]): remarkable hypoglycemic action

**Q.** What does the source list for `CC(=O)N1[C@@H]2CCCC[C@H]2NC2=C(C(=O)NC2)[C@H]1c1ccccc1C` [Compound 88]?
**A.** A: sugar transportation activity (EC50) (adipose cells of rats): 5 µg/mL; hypoglycemic action (blood glucose level) (GK rats): remarkable hypoglycemic action; hypoglycemic action (blood glucose level) (KK-Ay mice): remarkable hypoglycemic action; hypoglycemic action (oral glucose load) (C57BL/KsJ-db/bdJcl mice [1]): remarkable hypoglycemic action; hypoglycemic action (blood glucose level) (C57BL/KsJ-db/bdJcl mice [2]): remarkable hypoglycemic action

**Q.** Which results are given for `CC(=O)N1[C@@H]2CCCC[C@H]2NC2=C(C(=O)NC2)[C@H]1c1ccccc1C1CC1` [Compound 105]?
**A.** A: sugar transportation activity (EC50) (adipose cells of rats): 0.5 µg/mL; hypoglycemic action (blood glucose level) (GK rats): remarkable hypoglycemic action; hypoglycemic action (blood glucose level) (KK-Ay mice): remarkable hypoglycemic action; hypoglycemic action (oral glucose load) (C57BL/KsJ-db/bdJcl mice [1]): remarkable hypoglycemic action; hypoglycemic action (blood glucose level) (C57BL/KsJ-db/bdJcl mice [2]): remarkable hypoglycemic action

**Q.** For `CCOCC(=O)N1[C@@H]2CCCC[C@H]2NC2=C(C(=O)NC2)[C@H]1c1ccccc1` [Compound 132], which “A: sugar transportation activity (EC50)” value (adipose cells of rats) is on record?
**A.** 2.7 µg/mL

**Q.** What about the “hypoglycemic action (blood glucose level)” value (GK rats) of the same compound?
**A.** remarkable hypoglycemic action

**Q.** And the “hypoglycemic action (blood glucose level)” value (KK-Ay mice)?
**A.** remarkable hypoglycemic action

**Q.** And the “hypoglycemic action (oral glucose load)” value (C57BL/KsJ-db/bdJcl mice [1])?
**A.** remarkable hypoglycemic action

**Q.** What about the “hypoglycemic action (blood glucose level)” value (C57BL/KsJ-db/bdJcl mice [2]) of the same compound?
**A.** remarkable hypoglycemic action

**Q.** With `CCC(=O)N1[C@@H]2CCCC[C@H]2N(C)C2=C(C(=O)NC2)[C@H]1c1ccccc1C` [Compound 91] as the compound, how does the “A: sugar transportation activity (EC50)” value (adipose cells of rats) read?
**A.** 0.45 µg/mL

**Q.** And the “hypoglycemic action (blood glucose level)” value (GK rats)?
**A.** remarkable hypoglycemic action

**Q.** What about the “hypoglycemic action (blood glucose level)” value (KK-Ay mice) of the same compound?
**A.** remarkable hypoglycemic action

**Q.** And the “hypoglycemic action (oral glucose load)” value (C57BL/KsJ-db/bdJcl mice [1])?
**A.** remarkable hypoglycemic action

**Q.** What about the “hypoglycemic action (blood glucose level)” value (C57BL/KsJ-db/bdJcl mice [2]) of the same compound?
**A.** remarkable hypoglycemic action

**Q.** Which EC50 (adipose cells of rats) does the source give for `CCOCC(=O)N1[C@@H]2CCCC[C@H]2NC2=C(C(=O)NC2)[C@H]1c1ccccc1CC` [Compound 96] here?
**A.** 5.4 µg/mL (≈ 13.6 µM)

**Q.** What about the “hypoglycemic action (area under the curve of blood glucose level changes until 70 minutes, variation from vehicle group)” value (C57BL/6NCrj mice) of the same compound?
**A.** remarkable hypoglycemic action

**Q.** What about the “hypoglycemic action (blood glucose level)” value (KK-Ay mice) of the same compound?
**A.** remarkable hypoglycemic action

**Q.** And the “hypoglycemic action (oral glucose load)” value (C57BL/KsJ-db/bdJcl mice [1])?
**A.** remarkable hypoglycemic action

**Q.** What about the “hypoglycemic action (blood glucose level)” value (C57BL/KsJ-db/bdJcl mice [2]) of the same compound?
**A.** remarkable hypoglycemic action

**Q.** Which results are given for `COc1ccccc1[C@@H]1C2=C(CNC2=O)N[C@@H]2CCCC[C@H]2N1C(=O)CC(F)(F)F` [Compound 6]?
**A.** A: sugar transportation activity (EC50) (adipose cells of rats): 0.47 µg/mL; hypoglycemic action (blood glucose level) (GK rats): remarkable hypoglycemic action; hypoglycemic action (blood glucose level) (KK-Ay mice): remarkable hypoglycemic action; hypoglycemic action (oral glucose load) (C57BL/KsJ-db/bdJcl mice [1]): remarkable hypoglycemic action; hypoglycemic action (blood glucose level) (C57BL/KsJ-db/bdJcl mice [2]): remarkable hypoglycemic action

**Q.** With `CSc1ccccc1[C@@H]1C2=C(CNC2=O)N[C@@H]2CCCC[C@H]2N1C(=O)CO` [Compound 81] as the compound, how does the “A: sugar transportation activity (EC50)” value (adipose cells of rats) read?
**A.** 2 µg/mL

**Q.** What about the “hypoglycemic action (blood glucose level)” value (GK rats) of the same compound?
**A.** remarkable hypoglycemic action

**Q.** And the “hypoglycemic action (blood glucose level)” value (KK-Ay mice)?
**A.** remarkable hypoglycemic action

**Q.** And the “hypoglycemic action (oral glucose load)” value (C57BL/KsJ-db/bdJcl mice [1])?
**A.** remarkable hypoglycemic action

**Q.** And the “hypoglycemic action (blood glucose level)” value (C57BL/KsJ-db/bdJcl mice [2])?
**A.** remarkable hypoglycemic action

**Q.** Which results are given for `COc1ccccc1[C@@H]1C2=C(CNC2=O)N[C@@H]2CCCC[C@H]2N1C(=O)CO` [Compound 8]?
**A.** A: sugar transportation activity (EC50) (adipose cells of rats): 2 µg/mL; hypoglycemic action (blood glucose level) (GK rats): remarkable hypoglycemic action; hypoglycemic action (blood glucose level) (KK-Ay mice): remarkable hypoglycemic action; hypoglycemic action (oral glucose load) (C57BL/KsJ-db/bdJcl mice [1]): remarkable hypoglycemic action; hypoglycemic action (blood glucose level) (C57BL/KsJ-db/bdJcl mice [2]): remarkable hypoglycemic action
